Legend:
[1] = UV-VIS and fluorescence spectroscopy; type: physicochemical; conditions: UV-VIS spectrum
Method: A size of the contrast agent was detected with the Zetasizer nano-ZS. 10 μL of each of MR780 NPs, FITC-MR780 NPs, and FITC-DSPC NPs was taken and added dropwise on a mesh, air-dried, stained with phosphotungstic acid (10 μL, 3.0%), then washed with deionized water, and air-dried. Morphological images of the mannose contrast agents were acquired through high-resolution transmission electron microscopy (HRTEM). Since MR780 NPs need to emit reduced glutathione-responsive fluorescence in a tumor microenvironment, it must be ensured that MR780 NPs can stably restore the fluorescence signal after reacting with reduced glutathione. 10 μL of MR780 NPs was thoroughly mixed with 10 mM reduced glutathione, and a resulting mixture was shaken at room temperature in the dark; and the fluorescence restoration of MR780 NPs in each group was tested at 10 min, 1 h, 2 h, and 4 h. The UV-VIS spectroscopy and fluorescence spectroscopy were conducted respectively on a UV-VIS spectrophotometer and a fluorescence spectrophotometer.

[2] = system: induced RAW264.7 cells (CD206); conditions: pre-blocking 2 h at 10-100 mg/mL, then FITC-MR780 NPs 40 μg/mL 2 h; FCM
Method: After 2 h of co-incubation, the DMEM was changed, FITC-MR780 NPs 40 μg/mL was added in each group, and then co-incubation was conducted for 2 h. A fluorescence signal of FITC in cells of each group was determined by FCM.
2 h before the blocking experiment, free mannose was added in advance at different concentrations, then FITC-MR780 NPs were added, and then co-incubation was conducted for 2 h. An intracellular fluorescence intensity of FITC was determined by FCM.

[3] = system: CD206 on a surface of RAW264.7 cells; assay: Induction of macrophage differentiation, CD206 expression by FCM; type: cell-based, mouse; conditions: 24 h with inducer (IL-4 20 ng/mL; LPS 100 ng/mL)
Method: RAW264.7 cells at a logarithmic growth phase were plated in a 6-well plate at a density of 1×10^5 cells/mL, then a DMEM was added at 2 mL/well, the plate was incubated overnight, and then interleukin-4 (IL-4) was added to the culture at a final concentration of 20 ng/mL. The IL-4 was an M2 macrophage inducer. In a control group, an M1 macrophage inducer lipopolysaccharide (LPS) was added to the culture at a final concentration of 100 ng/mL and then incubated for 24 h.
The expression of CD206 on a surface of RAW264.7 cells before and after induction was determined by FCM. Cells were digested and centrifuged, 0.5 μg of mouse CD16/32 monoclonal antibody (mAb) was added, and a resulting mixture was incubated at room temperature for 10 min. Then 0.5 mL of a 1× fixation buffer was added, a resulting mixture was incubated in the dark for 20 min and then centrifuged at 350 g for 5 min, and a resulting supernatant was discarded. 2 mL of a membrane disruption solution was added, and a resulting suspension was centrifuged at 350 g for 5 min; and the operation was repeated once. […] 200 μL of PBS was added to resuspend the cells, and the expression of CD206 on a cell surface in each of the two groups was detected by FCM.

With `CCCN1/C(=C/C=C2\CCCC(/C=C/C3=[N+](CCC)c4ccccc4C3(C)C)=C2Cl)C(C)(C)c2ccccc21.[I-]` [IR780] the “UV-VIS maximum absorbance / maximum absorption peak” value [1] was 780 nm.

In the case of `Nc1ccc(O[C@H]2O[C@H](CO)[C@@H](O)[C@H](O)[C@@H]2O)cc1` [free mannose, 4-aminophenyl-α-D-mannopyranoside], the “phagocytosis of cells for FITC-MR780 NPs after pre-blocking” value [2] is reported as “decreases significantly”.

B1: IL-4: interleukin-4, M2 macrophage inducer (protein, UniProt P05112 25-153, looked up)
Interleukin-4: HKCDITLQEIIKTLNSLTEQKTLCTELTVTDIFAASKNTTEKETFCRAATVLRQFYSHHEKDTRCLGATAQQFHRHKQLIRFLKRLDRNLWGLAGLNSCPVKEANQSTLENFLERLKTIMREKYSKCSS
With B1 the “expression of CD206” value [3] was 81.22±0.64%.
